Measured values from patent US11634396B2 (priority 2021, dated 2023).
Structures can show the parent of a compound that is named as a salt.

These molecules were tested against human mOR (Homo sapiens (Human), UniProt P35372) (assay: cell-based). Conditions: not given.
Chain of human mOR (P35372 whole entry): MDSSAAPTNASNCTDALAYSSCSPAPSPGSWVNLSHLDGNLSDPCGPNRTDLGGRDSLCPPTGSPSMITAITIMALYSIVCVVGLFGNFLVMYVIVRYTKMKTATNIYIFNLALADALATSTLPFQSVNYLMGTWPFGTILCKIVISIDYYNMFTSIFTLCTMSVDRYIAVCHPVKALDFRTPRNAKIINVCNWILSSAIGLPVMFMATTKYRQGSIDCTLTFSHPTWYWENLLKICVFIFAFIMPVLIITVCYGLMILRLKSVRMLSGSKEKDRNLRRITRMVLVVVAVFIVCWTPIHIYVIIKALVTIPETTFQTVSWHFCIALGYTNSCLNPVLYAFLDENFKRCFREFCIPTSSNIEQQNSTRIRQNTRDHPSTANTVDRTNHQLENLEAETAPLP

How did the IC50 turn out when `CCN(CC)[C@H](CNC(=O)C[C@@H](c1ccccc1)C(C)(C)C)Cc1ccc(C(=O)NC)c(F)c1` [Compound 166, 4-((S)-2-(diethylamino)-3-((R)-4,4-dimethyl-3-phenylpentanamido)propyl)-2-fluoro-N-methylbenzamide] was run?
Its IC50 is under 300 nM.

For `Cc1ncc([C@@H](CC(=O)NC[C@H](Cc2ccc3[nH]c(=O)oc3c2C)N(C)C)C2(C(F)(F)F)CC2)cn1` [Compound 169, (R)-N-((S)-2-(dimethylamino)-3-(7-methyl-2-oxo-2,3-dihydrobenzo[d]oxazol-6-yl)propyl)-3-(2-methylpyrimidin-5-yl)-3-(1-(trifluoromethyl)cyclopropyl)propanamide], which IC50 is on record?
The IC50 was over 3000 nM.

For `Cc1c(C[C@@H](CNC(=O)C[C@H](c2ccncc2)C2(C(F)(F)F)CC2)N(C)C)ccc2[nH]c(=O)oc12` [Compound 170, (R)-N-((S)-2-(dimethylamino)-3-(7-methyl-2-oxo-2,3-dihydrobenzo[d]oxazol-6-yl)propyl)-3-(pyridin-4-yl)-3-(1-(trifluoromethyl)cyclopropyl)propanamide], which IC50 is on record?
The IC50 was under 300 nM.

For `Cc1c(C[C@@H](CNC(=O)C[C@@H](CC2CC2)c2cccnc2)N(C)C)ccc2c1CC(=O)N2` [Compound 179, (R)-4-cyclopropyl-N-((S)-2-(dimethylamino)-3-(4-methyl-2-oxoindolin-5-yl)propyl)-3-(pyridin-3-yl)butanamide], which IC50 is on record?
The IC50 was under 300 nM.

With `Cc1c(C[C@@H](CNC(=O)C[C@H](c2cccnc2)C2(C(F)(F)F)CC2)N(C)C)ccc2c1CC(=O)N2` [Compound 180, (R)-N-((S)-2-(dimethylamino)-3-(4-methyl-2-oxoindolin-5-yl)propyl)-3-(pyridin-3-yl)-3-(1-(trifluoromethyl)cyclopropyl)propanamide] as the molecule, how does the IC50 read?
The IC50 was under 300 nM.

Which IC50 does the source give for `CN(C)[C@H](CNC(=O)C[C@H](c1ccccc1)C1(C(F)(F)F)CC1)Cc1ccc2c(c1)CC(=O)N2` [Compound 189, (R)-N-((S)-2-(dimethylamino)-3-(2-oxoindolin-5-yl)propyl)-3-phenyl-3-(1-(trifluoromethyl)cyclopropyl)propanamide] here?
The IC50 was under 300 nM.

With `CN(C)[C@H](CNC(=O)C[C@H](c1cccnc1)C1(C(F)(F)F)CC1)Cc1ccc2[nH]ncc2c1Cl` [Compound 192, (R)-N-((S)-3-(4-chloro-1H-indazol-5-yl)-2-(dimethylamino)propyl)-3-(pyridin-3-yl)-3-(1-(trifluoromethyl)cyclopropyl)propanamide] as the molecule, how does the IC50 read?
The IC50 was under 300 nM.

For `CN(C)[C@H](CNC(=O)C[C@H](c1cccnc1)C1(C(F)(F)F)CC1)Cc1ccc2[nH]ncc2c1F` [Compound 195, (R)-N-((S)-2-(dimethylamino)-3-(4-fluoro-1H-indazol-5-yl)propyl)-3-(pyridin-3-yl)-3-(1-(trifluoromethyl)cyclopropyl)propanamide], which IC50 is on record?
The IC50 was under 300 nM.

Which IC50 does the source give for `Cc1c(C[C@@H](CNC(=O)C[C@H](c2ccncc2)C2(C(F)(F)F)CC2)N(C)C)ccc2[nH]ncc12` [Compound 196, (R)-N-((S)-2-(dimethylamino)-3-(4-methyl-1H-indazol-5-yl)propyl)-3-(pyridin-4-yl)-3-(1-(trifluoromethyl)cyclopropyl)propanamide] here?
Its IC50 is under 300 nM.

With `Cc1c(C[C@@H](CNC(=O)C[C@H](c2cccnc2)C2(C(F)(F)F)CC2)N(C)C)ccc2[nH]ncc12` [Compound 197, (R)-N-((S)-2-(dimethylamino)-3-(4-methyl-1H-indazol-5-yl)propyl)-3-(pyridin-3-yl)-3-(1-(trifluoromethyl)cyclopropyl)propanamide] as the molecule, how does the IC50 read?
Its IC50 is under 300 nM.

For `Cc1c(C[C@@H](CNC(=O)C[C@H](c2cccnc2)C2(C)CC2)N(C)C)ccc2[nH]ncc12` [Compound 199, (S)-N-((S)-2-(dimethylamino)-3-(4-methyl-1H-indazol-5-yl)propyl)-3-(1-methylcyclopropyl)-3-(pyridin-3-yl)propanamide], which IC50 is on record?
The IC50 was under 300 nM.

How did the IC50 turn out when `Cc1cncc([C@H](CC(=O)NC[C@H](Cc2ccc3[nH]ncc3c2)N(C)C)C2(C(F)(F)F)CC2)c1` [Compound 203, (S)-N-((S)-2-(dimethylamino)-3-(1H-indazol-5-yl)propyl)-3-(5-methylpyridin-3-yl)-3-(1-(trifluoromethyl)cyclopropyl)propanamide] was run?
Its IC50 is 300 to 3000 nM.

Which IC50 does the source give for `CN(C)[C@H](CNC(=O)C[C@H](c1cccnc1)C1(C)CC1)Cc1ccc2[nH]ncc2c1` [Compound 204, (S)-N-((S)-2-(dimethylamino)-3-(1H-indazol-5-yl)propyl)-3-(1-methylcyclopropyl)-3-(pyridin-3-yl)propanamide] here?
Its IC50 is under 300 nM.

With `CN(C)[C@H](CNC(=O)C[C@@H](c1ccncc1)C1(C(F)(F)F)CC1)Cc1ccc2[nH]ncc2c1` [Compound 208, (S)-N-((S)-2-(dimethylamino)-3-(1H-indazol-5-yl)propyl)-3-(pyridin-4-yl)-3-(1-(trifluoromethyl)cyclopropyl)propanamide] as the molecule, how does the IC50 read?
Its IC50 is under 300 nM.

Which IC50 does the source give for `CN(C)[C@H](CNC(=O)C[C@H](c1ccncc1)C1(C(F)(F)F)CC1)Cc1ccc2[nH]ncc2c1` [Compound 209] here?
The IC50 was under 300 nM.

For `Cc1ccc([C@@H](CC(=O)NC[C@H](Cc2ccc3[nH]ncc3c2)N(C)C)C2(C(F)(F)F)CC2)cn1` [Compound 211, (R)-N-((S)-2-(dimethylamino)-3-(1H-indazol-5-yl)propyl)-3-(6-methylpyridin-3-yl)-3-(1-(trifluoromethyl)cyclopropyl)propanamide], which IC50 is on record?
The IC50 was under 300 nM.

`CN(C)[C@H](CNC(=O)C[C@H](c1cccnc1)C1(C(F)(F)F)CC1)Cc1ccc2[nH]ncc2c1` [Compound 213, (R)-N-((S)-2-(dimethylamino)-3-(1H-indazol-5-yl)propyl)-3-(pyridin-3-yl)-3-(1-(trifluoromethyl)cyclopropyl)propanamide] was tested. Which IC50 did it give?
Its IC50 is under 300 nM.

How did the IC50 turn out when `CN(C)[C@H](CNC(=O)C[C@H](c1cccnc1)C1(C(F)(F)F)CC1)Cc1cc(F)c2[nH]ncc2c1` [Compound 230, (R)-N-((S)-2-(dimethylamino)-3-(7-fluoro-1H-indazol-5-yl)propyl)-3-(pyridin-3-yl)-3-(1-(trifluoromethyl)cyclopropyl)propanamide] was run?
The IC50 was under 300 nM.

For `Cc1cc(C[C@@H](CNC(=O)C[C@H](c2cccnc2)C2(C(F)(F)F)CC2)N(C)C)cc2cn[nH]c12` [Compound 231, (R)-N-((S)-2-(dimethylamino)-3-(7-methyl-1H-indazol-5-yl)propyl)-3-(pyridin-3-yl)-3-(1-(trifluoromethyl)cyclopropyl)propanamide; bis(trifluoroacetic acid)], which IC50 is on record?
Its IC50 is under 300 nM.

Which IC50 does the source give for `CN(C)[C@H](CNC(=O)C[C@H](c1cccnc1)C1(C(F)(F)F)CC1)Cc1ccc2cn[nH]c2c1` [Compound 232, (R)-N-((S)-2-(dimethylamino)-3-(1H-indazol-6-yl)propyl)-3-(pyridin-3-yl)-3-(1-(trifluoromethyl)cyclopropyl)propanamide] here?
Its IC50 is 300 to 3000 nM.

Same assay, conditions: CHO Tag-lite human mOR stable cell line; forskolin 4 μM and DAMGO at EC90; read-out: mOR cAMP Antagonist Assay IC50

With `CN(C)[C@H](CNC(=O)C[C@@H](c1cccnc1)C1(C(F)(F)F)CC1)Cc1ccc2[nH]c(=O)oc2c1` [Compound 176, (S)-N-((S)-2-(dimethylamino)-3-(2-oxo-2,3-dihydrobenzo[d]oxazol-6-yl)propyl)-3-(pyridin-3-yl)-3-(1-(trifluoromethyl)cyclopropyl)propanamide] as the molecule, how does the IC50 read?
The IC50 was under 300 nM.

Which IC50 does the source give for `CN(C)[C@H](CNC(=O)CC(c1ncccn1)C1(C(F)(F)F)CC1)Cc1ccc2c(c1)CC(=O)N2` (stereo partly drawn) [Compound 188, N-((S)-2-(dimethylamino)-3-(2-oxoindolin-5-yl)propyl)-3-(pyrimidin-2-yl)-3-(1-(trifluoromethyl)cyclopropyl)propenamide] here?
The IC50 was 300 to 3000 nM.

How did the IC50 turn out when `CN(C)[C@H](CNC(=O)C[C@@H](c1ccccc1)C1(C(F)(F)F)CC1)Cc1ccc2[nH]ncc2c1` [Compound 190, (S)-N-((S)-2-(dimethylamino)-3-(1H-indazol-5-yl)propyl)-3-phenyl-3-(1-(trifluoromethyl)cyclopropyl)propanamide] was run?
The IC50 was 300 to 3000 nM.

Which IC50 does the source give for `CN(C)[C@H](CNC(=O)C[C@H](c1ccncc1)C1(C(F)(F)F)CC1)Cc1ccc2[nH]ncc2c1Cl` [Compound 191, (R)-N-((S)-3-(4-chloro-1H-indazol-5-yl)-2-(dimethylamino)propyl)-3-(pyridin-4-yl)-3-(1-(trifluoromethyl)cyclopropyl)propanamide] here?
Its IC50 is under 300 nM.

With `CN[C@H](CNC(=O)C[C@H](c1cccnc1)C1(C(F)(F)F)CC1)Cc1ccc2[nH]ncc2c1` [Compound 200, (R)-N-((S)-3-(1H-indazol-5-yl)-2-(methylamino)propyl)-3-(pyridin-3-yl)-3-(1-(trifluoromethyl)cyclopropyl)propanamide] as the molecule, how does the IC50 read?
Its IC50 is 300 to 3000 nM.

`N[C@H](CNC(=O)C[C@H](c1cccnc1)C1(C(F)(F)F)CC1)Cc1ccc2[nH]ncc2c1` [Compound 201, (R)-N-((S)-2-amino-3-(1H-indazol-5-yl)propyl)-3-(pyridin-3-yl)-3-(1-(trifluoromethyl)cyclopropyl)propenamide dihydrochloride salt] was tested. Which IC50 did it give?
Its IC50 is over 3000 nM.

Which IC50 does the source give for `Cc1cc([C@@H](CC(=O)NC[C@H](Cc2ccc3[nH]ncc3c2)N(C)C)C2(C(F)(F)F)CC2)ccn1` [Compound 202, (R)-N-((S)-2-(dimethylamino)-3-(1H-indazol-5-yl)propyl)-3-(2-methylpyridin-4-yl)-3-(1-(trifluoromethyl)cyclopropyl)propanamide] here?
The IC50 was under 300 nM.

With `CN(C)[C@H](CNC(=O)C[C@H](c1cncc(Cl)c1)C1(C(F)(F)F)CC1)Cc1ccc2[nH]ncc2c1` [Compound 205, (R)-3-(5-chloropyridin-3-yl)-N-((S)-2-(dimethylamino)-3-(1H-indazol-5-yl)propyl)-3-(1-(trifluoromethyl)cyclopropyl) propanamide] as the molecule, how does the IC50 read?
The IC50 was under 300 nM.

For `CC(C)[C@H](CC(=O)NC[C@H](Cc1ccc2[nH]ncc2c1)N(C)C)c1cccnc1` [Compound 206, (S)-N-((S)-2-(dimethylamino)-3-(1H-indazol-5-yl)propyl)-4-methyl-3-(pyridin-3-yl)pentanamide], which IC50 is on record?
The IC50 was 300 to 3000 nM.

`CN(C)[C@H](CNC(=O)C[C@H](c1cccnc1)C1CC1)Cc1ccc2[nH]ncc2c1` [Compound 207, (S)-3-cyclopropyl-N-((S)-2-(dimethylamino)-3-(1H-indazol-5-yl)propyl)-3-(pyridin-3-yl)propanamide] was tested. Which IC50 did it give?
Its IC50 is over 3000 nM.

How did the IC50 turn out when `CN(C)[C@H](CNC(=O)C[C@@H](CC1CC1)c1cccnc1)Cc1ccc2[nH]ncc2c1` [Compound 212, (R)-4-cyclopropyl-N-((S)-2-(dimethylamino)-3-(1H-indazol-5-yl)propyl)-3-(pyridin-3-yl)butanamide] was run?
The IC50 was over 3000 nM.
